# Data from EP1738741A2, “Use of benzylidene-1,3-thiazolidine-2,4-diones for favouring and/or inducing and/or stimulating the pigmentation of keratinic materials and/or for limiting their depigmentation and/or their bleaching” (L'ORÉAL, priority 2005, dated 2007).
# Read-outs that look alike come from different tables or passages of the source.
# Assays:
# [1] = system: activité tyrosinase de mélanocytes humains normaux; experiment: Tyrosinase activity of cultured normal human melanocytes after 72 h treatment (L-Dopa substrate, absorbance 450 nm); format: cell-based; conditions: Melanocyte, read-out: Stimulation de l'activité tyrosinase
# Protocol: Des mélanocytes épidermiques humains normaux sont cultivés (9ème passage) dans le milieu "mélanocytes growth medium M2" additionné Des compléments Promocell C24300. De pénicilline 50 UI/ml et de streptomycine 50 µg/ml (Invitrogen) dans des conditions classiques de température (37°C) sous 5% de CO2.
# Le composé 5 est solubilisé dans de l'éthanol absolu (PGE2) ou dans du DMSO (inhibiteurs de 15-PGDH). Le titre final des solutions préparées est de 10 mM. Les concentrations finales testées varient de 0.1 à 10 µM (PGE2) et 1 à 10 µM (inhibiteurs de 15-PGDH).
# Les essais réalisés consistent à mesurer l'effet d'inhibiteur de 15-PGDH seul ou associé à PGE2* sur l'activité globale de la tyrosinase. * PGE2 est un modulateur de pigmentation désactivé par l'enzyme 15-PGDH.
# Les mélanocytes sont cultivés en plaques 96 puits jusqu'à confluence (conditions de culture décrites en a), puis le surnageant de chacun des puits est éliminé et remplacé par du milieu contenant les composés à évaluer.
# Soit donc (en triplicate) l' inhibiteur de 15-PGDH seul à 1 µM et 10 µM ou pour chacune de ces premières conditions en présence de 0.1 µM, 1 µM ou 10 µM de PGE2.
# Dans ces différentes conditions les cultures sont maintenues 72h00, les surnageants sont ensuite éliminés, les tapis cellulaires sont lavés avec un tampon phosphate (pH=7.2). Les cellules sont lysées avec un tampon phosphate pH=7.2 contenant 1% de triton X100.
# L'activité tyrosinase de chacun des lysats est ensuite estimée contre une gamme tyrosinase de champignon (Sigma T7755).
# La méthodologie mise en oeuvre utilise la L-Dopa comme substrat de réaction (45 min à 37°C), la formation de mélanine est appréciée par mesure de l'absorbance à 450 nm.
# Dans ce test, deux références sont également évaluée: l'acide kojique (un inhibiteur de tyrosinase introduite à 0.1% dans le milieu de culture) et l'isobutyle méthyle xanthine (IBMX) un inhibiteur de phosphodiesterase qui limitant le catabolisme de l'AMPc contribue à l'augmentation de l'activité tyrosinase globale telle qu'appréciée dans ce test.
# 15-PGDH de type 1 = target: T1, 15-PGDH de type 1 (Homo sapiens, UniProt P15428); experiment: Test on 15-PGDH type 1: spectrophotometric enzyme inhibition at 340 nm (NAD, PGE2 substrate); format: biochemical
# T1 construct: made in house
# T1 sequence (P15428 1-266): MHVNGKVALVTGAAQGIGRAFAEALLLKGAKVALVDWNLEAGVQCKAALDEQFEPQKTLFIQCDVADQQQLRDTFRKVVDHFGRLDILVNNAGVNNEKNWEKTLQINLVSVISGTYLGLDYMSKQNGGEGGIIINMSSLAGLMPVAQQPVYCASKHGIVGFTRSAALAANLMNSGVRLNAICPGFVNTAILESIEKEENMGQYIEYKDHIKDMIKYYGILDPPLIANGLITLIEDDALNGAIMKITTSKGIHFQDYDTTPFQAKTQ
# Protocol: L'enzyme 15-PGDH est obtenue comme décrit dans la demande FR 02/05067 déposée au nom de L'Oréal, en suspension dans un milieu adapté à une concentration de 0,3 mg/mL puis bloquée à - 80°C. Pour les besoins du test, cette suspension est décongelée et stockée dans de la glace.
# Par ailleurs on prépare un tampon Tris 100 mM, pH = 7,4, contenant 0,1 mM de dithiothréitol (D5545, Sigma-Aldrich, L'isle D'Abeau Chesne, BP 701, 38297, Saint Quentin Fallavier), 1,5 mM de β-NAD (N6522, Sigma-Aldrich, L'isle D'Abeau Chesne, BP 701, 38297, Saint Quentin Fallavier), 50 µM de Prostaglandine E2 (P4172, Sigma-Aldrich, L'isle D'Abeau Chesne, BP 701, 38297, Saint Quentin Fallavier).
# Dans la cuve d'un spectrophotomètre (Perkin-Elmer, Lambda 2) thermostaté à 37°C, dont la longueur d'onde de mesure est réglée à 340 nm, sont introduits 0,965 ml de ce tampon (préalablement porté à 37°C). 0,035 mL de suspension enzymatique à 37°C sont introduits dans la cuve concomitamment à l'enregistrement ( correspondant à une augmentation de la densité optique à 340 nm). La vitesse maximale de réaction est relevée.
Structure (SMILES),inhibition at 100 µM (15-PGDH de type 1),other results
CC(C)(C)c1ccc(Oc2ccccc2/C=C2\SC(=O)NC2=O)cc1 [Composé 4],–,activation at 1 µM [1]: 16%
"CCCCC[C@H](O)/C=C/[C@H]1[C@H](O)CC(=O)[C@@H]1C/C=C\CCCC(=O)O [PGE2, Prostaglandine E2]",–,"activation at 0.1 µM ([1]; PGE2 alone at 0,1 µM): 3%; activation at 1 µM ([1]; PGE2 alone at 1 uM): 9%; activation at 10 µM ([1]; PGE2 alone at 10 uM): 15%"
O=C1NC(=O)/C(=C/c2ccccc2Oc2ccc(F)cc2)S1 [compound 6],48%,–
CCN1C(=O)S/C(=C\c2ccccc2Oc2ccc(C(C)(C)C)cc2)C1=O [compound 13],23%,–

# More lines, main results first:
inhibition at 100 µM (15-PGDH de type 1),Structure (SMILES),other results
27%,CC(C)(C)CC(C)(C)c1ccc(Oc2ccccc2/C=C2/SC(=O)NC2=O)cc1 [compound 15],–
30%,CC(C)(C)c1ccc(Oc2ccccc2/C=C2\SC(=O)NC2=O)c(C(C)(C)C)c1 [compound 17],–
